Laboratory results published in patent US12459951B2, “Compounds that interact with RAS superfamily proteins for treatment of cancers, inflammatory diseases, rasopathies, and fibrotic disease” (SHY Therapeutics, LLC, priority 2022, dated 2025).
Where two headings read alike, the source gives them in different places.

What was measured:
[1] = test system: MiaPaca-2 (expressing KRAS G12C mutant); assay: Proliferation Assay (Cell Viability Assay); type: cell-based; settings: Homo sapiens, MIA PaCa-2
Method: Protocol for Proliferation Assay
This assay is referred to as the “Proliferation Assay” or “Cell Viability Assay” throughout this application.
Cell lines: Human tumor-derived cell lines were purchased from American Type Culture Collection. Human tumor-derived pancreatic cancer cell line MiaPaca-2 (expressing KRAS G12C mutant) and Panc-1 (expressing KRas G12D mutant), and Human non-small cell lung cancer (NSCLC) cell line A549 (expressing KRas G12S mutant) were grown in complete DMEM-High Glucose medium. Human colon cancer cell line SW-620 (expressing KRas G12V mutant) was grown in RPMI 1640 medium. All cell lines were supplemented with penicillin (100 U/mL), streptomycin (100 μg/mL), and 10% heat-inactivated FBS at 37° C. in a humidified incubator with 5% CO2.
(§1) Method: Cells were plated at 2000 to 5000 cells/well density in 96-wells plate and cultured overnight. Small molecules to be tested were added to the cells in the final concentration of 10 μM in the presence of 0.3% DMSO and 10% FBS and incubated for 2-4 days at 37° C. in a humidified incubator with 5% CO2. For IC50 value determination, serial dilutions of compounds were added to cells under the same conditions.
Assay: At the end of the incubation period, cell viability was determined using the CellTiter 96® Aqueous One Solution Cell Proliferation Assay according to manufacturer specifications (Promega, Madison, WI). The percentage of small molecules inhibition of cellular proliferation was calculated from raw data.
Cell lines: these Human tumor-derived cell lines were purchased from American Type Culture Collection. Human tumor-derived pancreatic cancer cell line MiaPaca-2 (expressing KRAS G12C mutant) and Panc-1 (expressing KRas G12D mutant), and Human non-small cell lung cancer (NSCLC) cell line A549 (expressing KRas G12S mutant), and Human melanoma cell line A375 (wild type Kras) were grown in complete DMEM-High Glucose medium. Human tumor-derived pancreatic cancer cell lines SU86.86 (expressing KRas G12D mutant), BxPC3 (expressing wild type K-Ras), and Human non-small cell lung cancer (NSCLC) cell lines NCI-H441 (expressing KRas G12S mutant), NCI-H1975 (expressing wild type KRas), NCI-H358 (expressing KRas G12C mutant), NCI-H1299 (expressing NRas Q61H mutant), and Human colon cancer cell line SW-620 (expressing KRas G12V mutant), Human triple negative breast cancer cell line HCC-1806 (expressing wild type KRas), and Human tumor-derived multiple myeloma cell line MM.1R (expressing wild type KRAS), were grown in RPMI 1640 medium. Human tumor-derived breast cancer cell line BT-549 (expressing wild type KRAS) was grown in RPMI 1640 medium in the presence of 11.8U insulin. Human tumor-derived pancreatic cancer cell line HPAF-II (expressing KRas G12D mutant), Human triple negative breast cancer cell line BT-20 (expressing wild type KRas), and Human colon cancer cell line LS123 (expressing KRas G12S mutant), were grown in EMEM medium. Human tumor-derived pancreatic cancer cell line CF-PAC1 (expressing KRas G12V mutant) was frown in IMDM medium, and Human colon cancer cell line HT29 (expressing wild type KRas) was grown in McCoy's 5A medium. The colon cancer cell line GP2d (expressing KRas G12D mutant) was purchased from MilliporeSigma and grown in DMEM-High Glucose medium. All cell lines were supplemented with penicillin (100 U/mL), streptomycin (100 μg/mL), and 10% heat-inactivated FBS at 37° C. in a humidified incubator with 5% CO2.
as §1, with “that were” for “to be”, “FBS,” for “FBS”

Akt phosphorylation = assay: Akt Phosphorylation Assay (western blot), Panc-1; type: cell-based, human; settings: at 10 μM, * = activation
Method: Protocol for Western Akt Cell-Based Phosphorylation Assay
This assay is referred to as the “Akt Phosphorylation Assay” throughout this application.
Human tumor-derived pancreatic cancer cell line Panc-1 (expressing KRas G12D mutant) was purchased from American Type Culture Collection and grown in complete DMEM-High Glucose supplemented with penicillin (100 U/mL), streptomycin (100 μg/mL), and 10% heat-inactivated FBS at 37° C. in a humidified incubator with 5% CO2.
Method 1: Cells were plated at 350000 cells/well density in a 12-well plate, allowed 3 hours to adhere to the plate, then starved in the appropriate medium in the presence of 0.5% FBS overnight. The small molecules to be tested were added to the cells in the final concentration of 10 μM in the presence of 0.3% DMSO for 6 hours incubation at 37° C. Next, cells were stimulated with 1.5 ng/ml EGF for 15 minutes then cells were lysed with lysis buffer containing 1% Triton X-100, EDTA, and Halt™ Protease & Phosphatase Inhibitor Cocktail (Thermo Scientific). Protein concentration was assessed by BCA protein assay (Thermo Scientific). Phosphorylation level of Akt was determined by western blot.
Method 2: Cells were plated at 350000 cells/well density in a 12-well plate in 10% FBS. The next day small molecules to be tested were added to the cells in the final concentration of 10 μM in the presence of 0.3% DMSO for 6 hours incubation at 37° C. For IC50 value determination, serial dilutions of compounds were added to cells under the same conditions. Next, cells were lysed with lysis buffer containing 1% Triton X-100, EDTA, and Halt™ Protease & Phosphatase Inhibitor Cocktail (Thermo Scientific). Protein concentration was assessed by BCA protein assay (Thermo Scientific). Phosphorylation level of Akt was determined by western blot.
Western blot protocol: Equal amounts of protein (15-50 μg) were separated by SDS-PAGE and transferred to nitrocellulose membranes (Invitrogen by Thermo Fisher Scientific). The membrane was stained with Ponceau S Stain (Boston BioProducts) to verify uniform protein loading. Membranes were blocked with 10% milk and phosphorylation levels of Akt were assessed by incubating overnight at 4° C. with anti-phospho-Akt (Ser473) antibody (Cell Signaling) followed by HRP-conjugated secondary antibody (Jackson Immunoresearch, West Grove, PA). Bands were incubated in Amersham ECL Prime Western Blotting Detection Reagent (GE Healthcare) and visualized using the ChemiDoc MP imaging system (Bio-Rad).

[2] = read-out: Proliferation in MiaPaca-2: IC50

SMILES | IC50 ([1]; Proliferation assay, MiaPaca-2, read-out: MiaPaca-2 IC50 (nM) Pancreatic) | IC50 [1, 2] | % inh of Akt phosphorylation in Panc-1 (Akt phosphorylation)
Cc1c(-c2ccn(C)n2)cn2nc(-c3nccn3C)nc(Nc3cc(C4CC4)[nH]n3)c12 [Compound 104, N-(5-Cyclopropyl-1H-pyrazol-3-yl)-5-methyl-2-(1-methyl-1H-imidazol-2-yl)-6-(1-methyl-1H-pyrazol-3-yl)pyrrolo[2,1-f][1,2,4]triazin-4-amine] | 1 to 10 nM | < 150 nM | D* (85-100% activation)
Cc1c(-c2ccn(C3CC3)n2)cn2nc(-c3nccn3C)nc(Nc3cc(OCC(F)(F)F)ccn3)c12 [Compound 140, 6-(1-Cyclopropyl-1H-pyrazol-3-yl)-5-methyl-2-(1-methyl-1H-imidazol-2-yl)-N-(4-(2,2,2-trifluoroethoxy)pyridin-2-yl)pyrrolo[2,1-f][1,2,4]triazin-4-amine] |  | < 150 nM | D* (85-100% activation)
COc1ccnc(Nc2nc(-c3nccn3C)nn3cc(-c4cccnc4)c(-c4ccccn4)c23)c1 [Compound 166, N-(4-Methoxypyridin-2-yl)-2-(1-methyl-1H-imidazol-2-yl)-5-(pyridin-2-yl)-6-(pyridin-3-yl)pyrrolo[2,1-f][1,2,4]triazin-4-amine] |  | > 1000 nM | D* (85-100% activation)
Cc1c(-c2ccn(C)n2)cn2nc(-c3nccn3C)nc(Nc3ccccn3)c12 [Compound 118, 5-Methyl-2-(1-methyl-1H-imidazol-2-yl)-6-(1-methyl-1H-pyrazol-3-yl)-N-(pyridin-2-yl)pyrrolo[2,1-f][1,2,4]triazin-4-amine] |  | < 150 nM | D* (85-100% activation)
Cc1c(-c2ccn(C(C)C)n2)cn2nc(-c3nccn3C)nc(Nc3cc(OCCO)ncn3)c12 [Compound 97, 2-((6-((6-(1-Isopropyl-1H-pyrazol-3-yl)-5-methyl-2-(1-methyl-1H-imidazol-2-yl)pyrrolo[2,1-f][1,2,4]triazin-4-yl)amino)pyrimidin-4-yl)oxy) ethan-1-ol] |  | < 150 nM | D* (85-100% activation)
Cc1c(-c2ccn(C)n2)cn2nc(-c3nccn3C)nc(Nc3cnccn3)c12 [Compound 120, 5-Methyl-2-(1-methyl-1H-imidazol-2-yl)-6-(1-methyl-1H-pyrazol-3-yl)-N-(pyrazin-2-yl)pyrrolo[2,1-f][1,2,4]triazin-4-amine] |  | < 150 nM | B* (26-49% activation)
Cc1c(-c2ccn(C3CC3)n2)cn2nc(-c3nccn3C)nc(Nc3cc(OCCCN(C)C)ccn3)c12 [Compound 148, 6-(1-Cyclopropyl-1H-pyrazol-3-yl)-N-(4-(3-(dimethylamino)propoxy)pyridin-2-yl)-5-methyl-2-(1-methyl-1H-imidazol-2-yl)pyrrolo[2,1-f][1,2,4]triazin-4-amine] |  | > 1000 nM | A (1-25% inhibition)
Cc1c(-c2ccn(C3CC3)n2)cn2nc(-c3nccn3C)nc(Nc3cc(N(C)C)ccn3)c12 [Compound 145, N^2-(6-(1-Cyclopropyl-1H-pyrazol-3-yl)-5-methyl-2-(1-methyl-1H-imidazol-2-yl)pyrrolo[2,1-f][1,2,4]triazin-4-yl)-N^4,N^4-dimethylpyridine-2,4-diamine] |  | < 150 nM | D* (85-100% activation)
CCc1nc(Nc2nc(-c3nccn3C)nn3cc(-c4ccn(C)n4)c(C)c23)nn1C [Compound 108, N-(5-Ethyl-1-methyl-1H-1,2,4-triazol-3-yl)-5-methyl-2-(1-methyl-1H-imidazol-2-yl)-6-(1-methyl-1H-pyrazol-3-yl)pyrrolo[2,1-f][1,2,4]triazin-4-amine] |  | 510 to 1000 nM | D* (85-100% activation)
COc1ccnc(Nc2nc(-c3nccn3C)nn3cc(-c4cnn(C(C)C)c4)c(C)c23)c1 [Compound 165, 6-(1-Isopropyl-1H-pyrazol-4-yl)-N-(4-methoxypyridin-2-yl)-5-methyl-2-(1-methyl-1H-imidazol-2-yl)pyrrolo[2,1-f][1,2,4]triazin-4-amine] |  | < 150 nM | D* (85-100% activation)
COCCO[C@H]1C[C@H](Nc2nc(-c3nccn3C)nn3cc(-c4ccn(C)n4)c(C)c23)C1 [Compound 130, N-((1r,3r)-3-(2-Methoxyethoxy)cyclobutyl)-5-methyl-2-(1-methyl-1H-imidazol-2-yl)-6-(1-methyl-1H-pyrazol-3-yl)pyrrolo[2,1-f][1,2,4]triazin-4-amine] |  | > 1000 nM | D* (85-100% activation)
CO[C@H]1C[C@H](Nc2nc(-c3nccn3C)nn3cc(-c4ccncc4)c(C)c23)C1 [Compound 159, N-((1r,3r)-3-Methoxycyclobutyl)-5-methyl-2-(1-methyl-1H-imidazol-2-yl)-6-(pyridin-4-yl)pyrrolo[2,1-f][1,2,4]triazin-4-amine] |  | > 1000 nM | B (26-49% inhibition)
CO[C@@H]1CC[C@@H](Nc2nc(-c3nccn3C)nn3cc(-c4cccnc4)c(C)c23)C1 (racemic) [Compound 154, rac N-((1R,3R)-3-methoxy-cyclopentyl)-5-methyl-2-(1-methyl-1H-imidazol-2-yl)-6-(pyridin-3-yl)pyrrolo[2,1-f][1,2,4]triazin-4-amine] |  | > 1000 nM | B* (26-49% activation)
Cc1c(-c2ccn(C)n2)cn2nc(-c3nccn3C)nc(Nc3cc(OC4CC4)ccn3)c12 [Compound 126, N-(4-Cyclopropoxypyridin-2-yl)-5-methyl-2-(1-methyl-1H-imidazol-2-yl)-6-(1-methyl-1H-pyrazol-3-yl)pyrrolo[2,1-f][1,2,4]triazin-4-amine] |  | < 150 nM | D* (85-100% activation)
